Patent publication US20240100023A1, “Compositions and Methods For Treating Spinal Cord Injuries” (priority 2020, published 2024)

Experiments:
[1] = system: evoked fEPSPs in rat hippocampus; experiment: Evoked fEPSPs in rat hippocampus in vivo (perforant path / dentate gyrus); set-up: species or system Rat (Long Evans); conditions: for Minimum Effective Dose, effect on evoked fEPSPs in rat hippocampus: Rat (Long Evans), IP; for Effect on evoked fEPSP / EPSP amplitude: anesthetized rat, intraperitoneal
Method: Further selection and characterization of ampakines to identify SCI recovery drugs useful within the invention involved electrophysiological studies (to measure “electrically evoked field excitatory postsynaptic potentials” (fEPSPs) for test compounds). CX717 and CX1739 were tested for their ability to facilitate synaptic responses in vivo in anesthetized animals following peripheral administration. Stimulating and recording electrodes were inserted into the perforant path and dentate gyrus of the hippocampus, respectively. Electrically evoked field excitatory postsynaptic responses (fEPSPs) were measured before administration of ampakines, and for approximately 2 hours following intraperitoneal administration of ampakines.
Electrically evoked field excitatory postsynaptic potentials (fEPSPs) were determined for the exemplary test ampakines CX717 and CX1739 as described. […] The response magnitude was related to the plasma levels achieved during the study. […] Both ampakines appear to produce a 25% maximum increase in fEPSP amplitude.

[2] = system: LTP in rat hippocampus; experiment: Induction of LTP in rat hippocampus in vivo; set-up: species or system Rat (Long Evans); conditions: for Minimum Effective Dose, effect on induction of LTP in rat hippocampus: Rat (Long Evans), IP
[3] = system: Rat (Wistar); experiment: Novel object recognition memory; type: in vivo; conditions: for Minimum Effective Dose, novel object recognition memory: Rat (Wistar), IP
Method: Additional Novel Object Recognition behavioral model studies were conducted to further elucidate the SCI recovery activities of CX717 and CX1739. Rats were habituated to a test box for two 5-minute sessions on consecutive days. Each test session consisted of two phases: in the first phase (“sample period”), two identical objects (A1 and A2) were placed in the far corners of the box, and the rats were allowed to explore the objects. After a 24 hour delay, rats were re-introduced to the arena (“test period”) now containing a third identical copy of the familiar object (A3) and a new object (B), placed in the same locations as in the first phase, and the total time spent exploring each of the objects was determined over a 3-min duration. For CX717 drug treatment, rats were dosed 30 min prior to each sample session with either 0.1, 0.3, 1.0 mg/kg CX717 (p.o.); vehicle (0.5% methylcellulose, p.o.) or 0.9 mg/kg Aricept (E2020, i.p.). The exploration times for the full 3-min were calculated and expressed as the discrimination index, d1, defined as the absolute difference in time spent exploring the novel object minus the familiar object.
For CX1739 Male Wistar rats were assessed for cognitive ability in a test apparatus comprising an open-field arena placed in a sound-attenuated room under dimmed lighting. Rat exploration and activity were captured by a digital camera, and viewed on a monitor in an adjoining area. Following a 5-minute habituation period, each animal was placed in the test arena in the presence of two identical objects (plastic shapes) and the time spent actively exploring the objects during a 5-minute test period (T1) was recorded. After 24 hours, each rat was again placed in the test arena for 5 minutes (T2) in the presence of one familiar object and one novel object, and the time spent exploring both objects was recorded. The Recognition Index was calculated as the percentage of total exploration time spent exploring the novel object during the retention session (T2), which provides the primary measure of cognitive function in this assay.
The Novel object recognition (NOR) paradigm is a rodent model of recognition learning memory retrieval and takes advantage of the spontaneous behavior of rodents to investigate a novel object compared with a familiar object. NOR has been employed extensively to indicate cognition-enhancing properties of drug candidates, predictive of therapeutic efficacy of positively-assaying drugs for reducing SCI symptoms in humans.

[4] = system: Monkey (Rhesus); experiment: Delayed match-to-sample test; type: in vivo, Rhesus macaque; conditions: for Minimum Effective Dose, delayed match-to-sample test: Monkey (Rhesus), PO
Method: Further elucidating the potent behavioral and cognitive effects of exemplary ampakines useful within the invention, additional studies using the well-known Monkey Delayed Match to Sample assay were conducted. CX1739 was evaluated using aged Rhesus macaque monkeys (18 to 33 years old), undertaking the delayed match-to-sample (DMTS) task. The stimuli included red, blue, or yellow rectangles. A trial was initiated by presentation of a sample rectangle composed of one of the three colors. The sample rectangle remained in view until the monkey touched within its borders to initiate a pre-programmed delay (retention) interval. Following the delay interval, two choice rectangles were presented, with one of the two choice colors being the color matching the stimulus and the other (incorrect) color as one of the two remaining colors. A correct (matching) choice was reinforced. Non-matching choices were neither reinforced nor punished. The duration for each delay interval was adjusted for each subject until three levels of group performance accuracy approximated zero delay (85-100% of trials answered correctly), short delay interval (75-84% correct), medium delay interval (65-74% correct), and long delay interval (55-64% correct). The inter-trial interval was 5 seconds and each session consisted of 96 trials.

[5] = system: Mouse (CD1); experiment: Amphetamine-stimulated locomotion in mice; type: in vivo; conditions: for Minimum Effective Dose, amphetamine-stimulated locomotion: Mouse (CD1), IP; for Dose producing a significant decrease in amphetamine-stimulated locomotion: mice, amphetamine 2 mg/kg i.p.
Method: (§1) Effects of exemplary low impact ampakines were also evaluated in mice for the ability to inhibit amphetamine-stimulated locomotor activity. Mice were placed in the locomotor chamber for 20 min to habituate, removed, injected with either vehicle or SCI recovery ampakine (CX717), and 5 min later injected with 2 mg/kg i.p. Amphetamine Mice were returned to the locomotor chamber 10 min later, and their activity measured for a further 15 min. In related studies, adult male CD1 mice or male Sprague-Dawley rats were acclimated in a test chamber for 20 minutes removed and dosed i.p. (mice) or orally (rats) with CX1739, vehicle, or a reference compound. Five (mice) or 10 (rats) were then injected with amphetamine (2 mg/kg, i.p.) or saline vehicle and were returned to the activity test chamber.

[6] = system: Rat (SD); experiment: Amphetamine-stimulated locomotion and rearing in rats; type: in vivo; conditions: for Minimum Effective Dose, amphetamine-stimulated locomotion and rearing: Rat (SD), PO
Method: as §1

[7] = Phase 1 studies in healthy volunteers (safety, pharmacokinetics); type: in vivo, human
[8] = system: unanesthetized, freely moving rats; experiment: Diaphragm EMG and plethysmography in awake rats after C2Hx; type: in vivo, Rat
Method: Low dose ampakine treatment was evaluated in awake, freely moving subjects to determine whether this treatment would safely and effectively increase diaphragm activity impaired due to acute- or sub-acute cervical SCI. In a placebo-controlled experiment with freely-moving non-anesthetized rats, ventilation and metabolic rate (VCO2) were measured using whole body plethysmography and diaphragm EMG using in-dwelling muscle electrodes. Diaphragm electromyography (EMG) was recorded using chronic in-dwelling electrodes in unanesthetized, freely moving rats. A spinal hemilesion was induced at C2 (C2Hx), and rats were studied at 4- and 14-days post injury during quiet room air breathing and acute respiratory challenge accomplished by inspiring 10% O2, 7% CO2 gas mixture. At 4 and 14 days following C2 spinal hemisection injury (C2Hx), rats were given a single intravenous bolus of CX717 (5 mg/kg, n=8), CX1739 (5 mg/kg, n=8) or vehicle (2-hydroxypropyl-beta-cyclodextrin; HPCD; n=8) (FIG. 22). Hemisectional spinal surgery results in reduced diaphragm activity as measured by EMG and plethysmography (FIG. 23).

[9] = 14 days post injury, baseline breathing, 5 mg/kg i.v.

SMILES | Minimum Effective Dose, effect on evoked fEPSPs in rat hippocampus [1] | Effect on evoked fEPSP / EPSP amplitude [1] | Minimum Effective Dose, effect on induction of LTP in rat hippocampus [2] | d1 scores (discrimination index) compared to vehicle ([3]; 0.3 mg/kg, 24 hour delay) | Minimum Effective Dose, novel object recognition memory [3] | Minimum Effective Dose, delayed match-to-sample test [4] | Minimum Effective Dose, amphetamine-stimulated locomotion [5] | Dose producing a significant decrease in amphetamine-stimulated locomotion [5] | Minimum Effective Dose, amphetamine-stimulated locomotion and rearing [6] | Half-life compared with CX516 ([7]; species not stated) | Increase in tidal volume [8, 9] | Increase of peak inspiratory ipsilateral diaphragm EMG activity [8, 9] | Effect on LTP after tetanic stimulation ([2]; 3 mg/kg, 15 minutes prior to tetanic stimulation) | Preference for novel object exploration compared with positive control ([3]; 0.03 mg/kg) | Task accuracy with the Best Dose of each subject ([4]; sessions initiated 45 min after administration) | Amphetamine-stimulated rearing behavior in rats ([6]; rats, all doses tested) | Half-life compared with CX516 ([7]; human, in vivo) | Increase in tidal volume ([8]; 4-day time point, 5 mg/kg intravenous bolus) | Tidal volume during hypoxia-hypercapnia challenge ([8]; 10% O2, 7% CO2, follows the 4-day results)
O=C(c1ccc2nonc2c1)N1CCOCC1 [CX717, 1-(benzofurazan-5-ylcarbonyl)morpholine] | 5 mg/kg | long-lasting increase | 2 mg/kg | significant increase | 0.3 mg/kg | 0.8 mg/kg | 18 mg/kg | 3 mg/kg | 1 mg/kg | significantly longer half-lives than CX516 | ~20% | ~30% | – | – | – | – | – | – | –
CN(C(=O)c1ccc2nonc2c1)C1CCOCC1 [CX1739, N-Methyl-N-tetrahydro-2H-pyran-4-yl-[2,1,3]-benzoxadiazole-5-carboxamide] | 5 mg/kg | substantial increase | 3 mg/kg | – | 0.03 mg/kg | 0.3 mg/kg | 30 mg/kg | 30 mg/kg | 1 mg/kg | – | no change in tidal volume | ~10% | statistically significant increase in LTP | comparable to that of 3 mg/kg galantamine | statistically significant increase | modest reduction | significantly longer half-lives than CX516 | 20% | larger increase in tidal volume
